Three molecules from article doi:10.1101/2020.02.07.939504v1 (biorxiv, 2020) can be followed below.

The target of one assay is iAChSnFR (iAChSnFR0.9). The conditions noted are these: 200 nM soluble purified sensor.
In a further assay the target is y-iAChSnFR. The conditions noted are these: 200 nM purified sensor.
The next assay deals with iAChSnFR0.4. In words: fluorescence titration of purified sensor. It counts as binding, Thermoanaerobacter sp. As to conditions: read-out: apparent Kd; 200 nM purified sensor.
The target of another assay is X513-OpuBC. In words: isothermal titration calorimetry. The format is binding, Thermoanaerobacter sp. X513. The conditions noted are these: 25 °C, PBS, single experiment. In general terms: Isothermal titration calorimetry measures the heat released or taken up as one component is titrated into another.

Where two headings read alike, the source gives them in different places.

With `CC(=O)OCC[N+](C)(C)C` [acetylcholine], the Kd at iAChSnFR (iAChSnFR0.9) (read-out: apparent Kd) came to 1.3 ± 1 µM; on y-iAChSnFR it was 0.5 µM; at iAChSnFR0.4, 220 ± 16 µM; on X513-OpuBC (fit with fixed N = 1), 95 µM.
Take `NCCc1c[nH]c2ccc(O)cc12` [serotonin]: on iAChSnFR (iAChSnFR0.9) (read-out: affinity), the Kd is above 1000 µM.
For the molecule `C[N+](C)(C)CCO` [choline], the Kd on iAChSnFR (iAChSnFR0.9) (read-out: apparent Kd) is 45 ± 1.1 µM; on y-iAChSnFR, 20 µM; on X513-OpuBC (variable stoichiometry fit, N = 0.55) it was 8 µM.
